The record followed here is ChEMBL document CHEMBL1201862, “PubChem BioAssay data set” (2004).

Test systems include 786-0; A549; DU-145; IGROV-1; K562; LOX IMVI; M14; MDA-MB-231; MOLT-4; NCI-H23; NCI-H522; RPMI-8226; SF-295; SN12C; SNB-19; SR; SW-620; TK-10; UACC-257; U-251.
Holding throughout (assay): NCI-60 cell line screen, 48 h

The structures appear in SMILES notation.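 Each compound was tested at five concentrations against cells in 96-well plates for 48 hours. At the GI50, growth is halved.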 Calls of active or inactive are those of the source. No stated cut-off is given here; in the data, active = GI50 up to about 1.1 µM and inactive = higher. Some results are limits rather than exact numbers.

On to `CC(=O)O/N=C1\C=Cc2c(no[n+]2[O-])C1=O`, for which the GI50 was 19.3 µM (inactive) in the assay with 786-0; 16.1 µM (inactive) in the assay on A549; 17.9 µM (inactive) in the assay on DU-145; 16.4 µM (inactive) in the assay on IGROV-1; 35 µM (inactive) in the assay with K562; 18 µM (inactive) in the assay on LOX IMVI. Besides, the GI50 was 18.6 µM (inactive) with M14; 18.9 µM (inactive) with MDA-MB-231; 10.4 µM (inactive) with MOLT-4; 20 µM (inactive) with NCI-H23; 17 µM (inactive) in the assay with NCI-H522; 30 µM (inactive) in the assay with RPMI-8226. Besides, the GI50 is > 100 µM (inactive) in the assay on SF-295; 18.5 µM (inactive) in the assay with SN12C; > 100 µM (inactive) in the assay on SNB-19; 15.8 µM (inactive) in the assay on SR; 3.37 µM (inactive) in the assay with SW-620; 15.6 µM (inactive) with TK-10. In the assay on UACC-257, the GI50 is 18.2 µM (inactive).

Regarding `Nc1cc(-c2ccc(Cl)cc2)nn1-c1nc2ccccc2nc1-c1ccccc1`, the GI50 in the assay with 786-0 was 39 µM (inactive); with A549 it was > 100 µM (inactive); in the assay on DU-145 it was > 100 µM (inactive); in the assay with IGROV-1, 38.3 µM (inactive); in the assay with K562, > 100 µM (inactive); in the assay with LOX IMVI, > 100 µM (inactive). Besides, the GI50 with M14 was > 100 µM (inactive); in the assay with MDA-MB-231, > 100 µM (inactive); in the assay on MOLT-4, 8.02 µM (inactive); in the assay on NCI-H522 it was > 100 µM (inactive); in the assay with RPMI-8226, 37.5 µM (inactive); in the assay with SF-295, > 100 µM (inactive). For the same compound, the GI50 in the assay on SN12C was 80.7 µM (inactive); in the assay with SNB-19, 47.8 µM (inactive); with SR, 71.8 µM (inactive); in the assay with SW-620, > 100 µM (inactive); with TK-10, 77.1 µM (inactive); in the assay on U-251, 48.1 µM (inactive). Further, the GI50 in the assay with UACC-257 is > 100 µM (inactive).

Consider `CCOC(=O)c1nc2ccc(C(F)(F)F)cc2nc1NCc1cc(OC)c(OC)c(OC)c1`, for which the GI50 in the assay on 786-0 was 41.6 µM (inactive); in the assay on A549, 73.3 µM (inactive); in the assay with DU-145 it was 66.5 µM (inactive); with IGROV-1 it was > 100 µM (inactive); in the assay with LOX IMVI, 35.7 µM (inactive); in the assay on M14, > 100 µM (inactive). The GI50 in the assay on MDA-MB-231 was 60 µM (inactive); in the assay on MOLT-4, 70.8 µM (inactive); with NCI-H23, 59.2 µM (inactive); with NCI-H522, 37.1 µM (inactive); in the assay with RPMI-8226, 17.7 µM (inactive); with SF-295 it was > 100 µM (inactive). Further, the GI50 is > 100 µM (inactive) in the assay with SN12C; > 100 µM (inactive) in the assay on SNB-19; 7.38 µM (inactive) with SR; 54.1 µM (inactive) in the assay with SW-620; > 100 µM (inactive) with TK-10; > 100 µM (inactive) in the assay on UACC-257.

As for `CC1=NN(c2nc(N)nc(-c3ccccc3S(N)(=O)=O)n2)C(C)(C)C1`, the GI50 with 786-0 is 8.79 µM (inactive); in the assay with DU-145, 7.38 µM (inactive); in the assay with IGROV-1 it was 22.6 µM (inactive); in the assay on K562 it was 35.2 µM (inactive); with LOX IMVI, 10.3 µM (inactive); with M14, 6.7 µM (inactive). The GI50 with MDA-MB-231 was 22.2 µM (inactive); with MOLT-4, 5.19 µM (inactive); with NCI-H23, 20.1 µM (inactive); in the assay on NCI-H522 it was 24.3 µM (inactive); in the assay with RPMI-8226, 27.2 µM (inactive); in the assay with SF-295, 5.64 µM (inactive). Besides, the GI50 in the assay with SR was 5.85 µM (inactive); with SW-620, 25.8 µM (inactive); in the assay on TK-10, 9.51 µM (inactive); in the assay with U-251, 8.51 µM (inactive); with UACC-257, 30.2 µM (inactive).

For the compound `COC(=O)N/N=C(\c1ccccc1)c1ccc(OC)cc1`, the GI50 in the assay on 786-0 was > 100 µM (inactive); with A549 it was > 100 µM (inactive); in the assay with DU-145 it was > 100 µM (inactive); with IGROV-1, 59.6 µM (inactive); in the assay with K562 it was > 100 µM (inactive); in the assay with LOX IMVI, 35.3 µM (inactive). Moreover, the GI50 in the assay with M14, in the assay with MDA-MB-231, in the assay with MOLT-4, in the assay on NCI-H23, with NCI-H522 and in the assay on RPMI-8226 was > 100 µM (inactive) throughout. The GI50 with SN12C, in the assay with SNB-19, with SR, with SW-620, in the assay with TK-10 and with U-251 was > 100 µM (inactive) in each case. Also, in the assay on UACC-257, the GI50 is > 100 µM (inactive).

In the case of `CC1CCOc2ccc(cc2)/C=N\c2ccc(cc2)-c2ccc(cc2)/N=C\c2ccc(cc2)OCC1`, the GI50 with 786-0, in the assay on A549, in the assay with DU-145, in the assay with IGROV-1, in the assay on K562 and in the assay on LOX IMVI was > 100 µM (inactive) in each case. In addition, the GI50 in the assay with M14, with MDA-MB-231, in the assay with MOLT-4, in the assay on NCI-H23, in the assay on NCI-H522 and in the assay with RPMI-8226 was > 100 µM (inactive) each time. The GI50 in the assay with SF-295, in the assay with SN12C, in the assay on SR, in the assay with SW-620, in the assay with TK-10 and with U-251 was > 100 µM (inactive) in each case. In addition, the GI50 with UACC-257 is > 100 µM (inactive).

Turning to `CC1(C)[N+]([O-])=[N+]([O-])C1(C)O` (configuration not stated), the GI50 with 786-0, in the assay on A549, in the assay with DU-145, in the assay on IGROV-1, with K562 and in the assay with LOX IMVI was > 100 µM (inactive) each time. Besides, the GI50 in the assay with M14, in the assay with MDA-MB-231, in the assay on MOLT-4, in the assay on NCI-H23, in the assay on NCI-H522 and in the assay with RPMI-8226 was > 100 µM (inactive) in each case. Also, the GI50 with SN12C, in the assay on SNB-19, in the assay with SR, in the assay with SW-620, with TK-10 and with U-251 was > 100 µM (inactive) each time. Also, the GI50 with UACC-257 was > 100 µM (inactive).

For the compound `COC(=O)c1cccc(C)c1C1CN=NC12Cc1c(ccc(C)c1C)C2=O` (configuration not stated), the GI50 in the assay with 786-0 was 46.2 µM (inactive); in the assay with A549, 40.6 µM (inactive); in the assay on DU-145, 64.1 µM (inactive); in the assay with IGROV-1, 76.4 µM (inactive); with K562, 19 µM (inactive); in the assay with LOX IMVI, > 100 µM (inactive). For the same compound, the GI50 in the assay on M14 is 45.3 µM (inactive); in the assay with MDA-MB-231 it was 26.7 µM (inactive); in the assay on MOLT-4, 23.6 µM (inactive); in the assay on NCI-H23, 64.1 µM (inactive); in the assay with NCI-H522, 15.8 µM (inactive); in the assay on RPMI-8226, 17.3 µM (inactive). The GI50 with SN12C was 13.6 µM (inactive); in the assay on SNB-19, 55 µM (inactive); with SR, 21.3 µM (inactive); in the assay on SW-620, 29.5 µM (inactive); in the assay on TK-10 it was > 100 µM (inactive); with U-251, 56 µM (inactive). For the same compound, the GI50 in the assay with UACC-257 was > 100 µM (inactive).

Turning to `CN1C(=O)[C@@H]2N(CSC2(C)C)C1=S`, the GI50 was > 100 µM (inactive) in the assay with 786-0; > 100 µM (inactive) in the assay with A549; > 100 µM (inactive) in the assay with DU-145; > 100 µM (inactive) with IGROV-1; 69.7 µM (inactive) with K562; > 100 µM (inactive) in the assay with M14. The GI50 was > 100 µM (inactive) with MDA-MB-231; > 100 µM (inactive) in the assay with MOLT-4; > 100 µM (inactive) in the assay on NCI-H23; 29.1 µM (inactive) in the assay on NCI-H522; > 100 µM (inactive) in the assay on RPMI-8226; > 100 µM (inactive) in the assay on SF-295. Also, the GI50 with SN12C, in the assay on SNB-19, in the assay on SR, with SW-620, in the assay on TK-10 and with U-251 was > 100 µM (inactive) in each case. Moreover, in the assay with UACC-257, the GI50 is > 100 µM (inactive).

For `CC(C)=CCc1[nH]c2ccccc2c1C1=C(O)C(=O)C(c2c(CC=C(C)C)[nH]c3ccccc23)=C(O)C1=O`, the GI50 in the assay with 786-0 is 1.56 µM (inactive); in the assay on A549, 0.587 µM (active); in the assay with DU-145 it was 2.39 µM (inactive); with IGROV-1, 0.573 µM (active); in the assay on K562 it was 0.989 µM (active); with LOX IMVI it was 1.43 µM (inactive). Besides, the GI50 with M14 was 3.24 µM (inactive); with MDA-MB-231, 1.28 µM (inactive); with MOLT-4 it was 1.96 µM (inactive); in the assay with NCI-H23, 1.91 µM (inactive); in the assay on NCI-H522, 2.2 µM (inactive); in the assay with RPMI-8226 it was 2.3 µM (inactive). For the same compound, the GI50 with SF-295 is 1.03 µM (active); with SN12C, 1.26 µM (inactive); with SNB-19, 2.03 µM (inactive); in the assay on SR it was 1.17 µM (inactive); in the assay on SW-620 it was 3.27 µM (inactive); with U-251, 0.587 µM (active). In addition, the GI50 in the assay with UACC-257 was 2.12 µM (inactive).
